Reference: patent publication US20220315558A1, “POLYMORPHS OF 1-(2-((((TRANS)-3-FLUORO-1-(3-FLUOROPYRIDIN-2-YL)CYCLOBUTYL)METHYL)AMINO)PYRIMIDIN-5-YL)-1H-PYRROLE-3-CARBOXAMIDE” (Cytokinetics, Inc., priority 2019, published 2022)

Columns and labels:
Assay type in all cases: physicochemical
[1] = Competitive slurry experiments between Form I and Form II; settings: methanol, constant temperature 4 to 60° C., 12 days, XRPD
Procedure: (§1) A mechanical mixture of Form I and Form II was prepared. This mixture was analyzed by XRPD for reference. The mixture (ca. 25 mg) was suspended in methanol, and parallel maturation experiments were set up at a constant temperature, in the range of 4 to 60° C., for a total of 12 days. The resulting solids were filtered and analyzed by XRPD.

[2] = Solubility of Form I in solvents at 50° C. (polymorph screening); parameters: key: ✓ YES; x NO
Procedure: Polymorphic Form I of 1-(2-((((trans)-3-fluoro-1-(3-fluoropyridin-2-yl)cyclobutyl)methyl)amino)pyrimidin-5-yl)-1H-pyrrole-3-carboxamide was weighed into vials, and the stated solvents were added, in increasing portions, at 50° C. With each addition, the vials were allowed to shake for ˜20 minutes. After the last addition, any suspensions observed were subjected to heat/cool cycles, between room temperature and 50° C., 4 hours at each condition, for 1 week. Solutions were allowed to slowly evaporate.
Aliquots were filtered by suction after 7 days maturation and analysed by XRPD (low resolution, air-dried only). Most solutions yielded solids after 9 days and these were analyzed by XRPD as well.

[3] = Gravimetric Vapour Sorption (GVS) moisture sorption isotherm; settings: over 0-90% RH range, 25° C.
Procedure: GVS data were collected using a SMS DVS Intrinsic moisture sorption analyser, controlled by DVS Intrinsic Control software v1.0.0.30. The sample temperature was maintained at 25° C. by the instrument controls. The humidity was controlled by mixing streams of dry and wet nitrogen, with a total flow rate of 200 ml/min The relative humidity was measured by a calibrated Rotronic probe (dynamic range of 1.0-100% RH), located near the sample. The weight change, (mass relaxation) of the sample as a function of % RH was constantly monitored by the microbalance (accuracy ±0.005 mg).
Typically 5-20 mg of sample was placed in a tared mesh stainless steel basket under ambient conditions. The sample was loaded and unloaded at 40% RH and 25° C. (typical room conditions). A moisture sorption isotherm was performed as outlined below (2 scans giving 1 complete cycle). The standard isotherm was performed at 25° C. at 10% RH intervals over a 0-90% RH range. Data analysis was undertaken in Microsoft Excel using DVS Analysis Suite v6.0.

[4] = Competitive slurry experiments between Form I and Form IV; settings: as Example 3 (methanol, 4 to 60° C.), 12 days, XRPD
Procedure: as §1
Competitive slurry experiments between Form I and Form IV were conducted in a manner similar to that described in Example 3.

[5] = Storage stability for 7 days at controlled temperature/RH, checked by XRPD
Procedure: Ray Powder Diffraction patterns were collected on a Bruker D8 diffractometer using Cu Kα radiation (40 kV, 40 mA), θ-2θ goniometer, and divergence of V4 and receiving slits, a Ge monochromator and a Lynxeye detector. The instrument is performance checked using a certified Corundum standard (NIST 1976). The software used for data collection was Diffrac Plus XRD Commander v2.6.1 and the data were analysed and presented using Diffrac Plus EVA v13.0.0.2 or v15.0.0.0.
Samples were run under ambient conditions as flat plate specimens using powder as received. The sample was gently packed into a cavity cut into polished, zero-background (510) silicon wafer. The sample was rotated in its own plane during analysis. The details of the data collection are: • Angular range: 2 to 42° 2θ • Step size: 0.05° 2θ • Collection time: 0.5 s/step
Polymorphic Form I of 1-(2-((((trans)-3-fluoro-1-(3-fluoropyridin-2-yl)cyclobutyl)methyl)amino)pyrimidin-5-yl)-1H-pyrrole-3-carboxamide was analyzed by XRPD, DSC, TGA, and GVS. […] Chemical stability study of Form I was also performed. XRPD patterns were measured after storage of samples of Form I for 7 days at 40° C./75% RH and 25° C./97% RH.

NC(=O)c1ccn(-c2cnc(NC[C@]3(c4ncccc4F)C[C@H](F)C3)nc2)c1 [Form I, 1-(2-((((trans)-3-fluoro-1-(3-fluoropyridin-2-yl)cyclobutyl)methyl)amino)pyrimidin-5-yl)-1H-pyrrole-3-carboxamide]
relative stability versus Form II (competitive slurry) [1]: more stable | Solubility (volumes) (✓ YES; x NO) at 50° C. ([2]; 1,4-Dioxane, 10 volumes): x | Solubility (volumes) (✓ YES; x NO) at 50° C. ([2]; 1,4-Dioxane, 25 volumes): x | Solubility (volumes) (✓ YES; x NO) at 50° C. ([2]; 1,4-Dioxane, 50 volumes): x | Solubility (volumes) (✓ YES; x NO) at 50° C. ([2]; 1-Butanol, 10 volumes): x | Solubility (volumes) (✓ YES; x NO) at 50° C. ([2]; 1-Butanol, 25 volumes): x | Solubility (volumes) (✓ YES; x NO) at 50° C. ([2]; 1-Butanol, 50 volumes): x | Solubility (volumes) (✓ YES; x NO) at 50° C. ([2]; 1-Propanol, 10 volumes): x | Solubility (volumes) (✓ YES; x NO) at 50° C. ([2]; 1-Propanol, 25 volumes): x | Solubility (volumes) (✓ YES; x NO) at 50° C. ([2]; 1-Propanol, 50 volumes): x | Solubility (volumes) (✓ YES; x NO) at 50° C. ([2]; 2-Propanol, 10 volumes): x | Solubility (volumes) (✓ YES; x NO) at 50° C. ([2]; 2-Propanol, 25 volumes): x | Solubility (volumes) (✓ YES; x NO) at 50° C. ([2]; 2-Propanol, 50 volumes): x | Solubility (volumes) (✓ YES; x NO) at 50° C. ([2]; Acetone, 10 volumes): x | Solubility (volumes) (✓ YES; x NO) at 50° C. ([2]; Acetone, 25 volumes): x | Solubility (volumes) (✓ YES; x NO) at 50° C. ([2]; Acetone, 50 volumes): x | Solubility (volumes) (✓ YES; x NO) at 50° C. ([2]; Acetonitrile, 10 volumes): ✓ | Solubility (volumes) (✓ YES; x NO) at 50° C. ([2]; Anisole, 10 volumes): x | Solubility (volumes) (✓ YES; x NO) at 50° C. ([2]; Anisole, 25 volumes): x | Solubility (volumes) (✓ YES; x NO) at 50° C. ([2]; Anisole, 50 volumes): x | Solubility (volumes) (✓ YES; x NO) at 50° C. ([2]; Butyl acetate (BuOAc), 10 volumes): x | Solubility (volumes) (✓ YES; x NO) at 50° C. ([2]; Butyl acetate (BuOAc), 25 volumes): x | Solubility (volumes) (✓ YES; x NO) at 50° C. ([2]; Butyl acetate (BuOAc), 50 volumes): x | Solubility (volumes) (✓ YES; x NO) at 50° C. ([2]; Dichloromethane (DCM), 10 volumes): x | Solubility (volumes) (✓ YES; x NO) at 50° C. ([2]; Dichloromethane (DCM), 25 volumes): x | Solubility (volumes) (✓ YES; x NO) at 50° C. ([2]; Dichloromethane (DCM), 50 volumes): x | Solubility (volumes) (✓ YES; x NO) at 50° C. ([2]; Dioxane/5% water, 10 volumes): x | Solubility (volumes) (✓ YES; x NO) at 50° C. ([2]; Dioxane/5% water, 25 volumes): x | Solubility (volumes) (✓ YES; x NO) at 50° C. ([2]; Dioxane/5% water, 50 volumes): ✓ | Solubility (volumes) (✓ YES; x NO) at 50° C. ([2]; Ethanol, 10 volumes): x | Solubility (volumes) (✓ YES; x NO) at 50° C. ([2]; Ethanol, 25 volumes): x | Solubility (volumes) (✓ YES; x NO) at 50° C. ([2]; Ethanol, 50 volumes): x | Solubility (volumes) (✓ YES; x NO) at 50° C. ([2]; Ethanol/5% water, 10 volumes): x | Solubility (volumes) (✓ YES; x NO) at 50° C. ([2]; Ethanol/5% water, 25 volumes): x | Solubility (volumes) (✓ YES; x NO) at 50° C. ([2]; Ethanol/5% water, 50 volumes): x | Solubility (volumes) (✓ YES; x NO) at 50° C. ([2]; Ethyl acetate, 10 volumes): x | Solubility (volumes) (✓ YES; x NO) at 50° C. ([2]; Ethyl acetate, 25 volumes): x | Solubility (volumes) (✓ YES; x NO) at 50° C. ([2]; Ethyl acetate, 50 volumes): x | Solubility (volumes) (✓ YES; x NO) at 50° C. ([2]; Heptane, 10 volumes): x | Solubility (volumes) (✓ YES; x NO) at 50° C. ([2]; Heptane, 25 volumes): x | Solubility (volumes) (✓ YES; x NO) at 50° C. ([2]; Heptane, 50 volumes): x | Solubility (volumes) (✓ YES; x NO) at 50° C. ([2]; Isopropanol (IPA)/5% water, 10 volumes): x | Solubility (volumes) (✓ YES; x NO) at 50° C. ([2]; Isopropanol (IPA)/5% water, 25 volumes): x | Solubility (volumes) (✓ YES; x NO) at 50° C. ([2]; Isopropanol (IPA)/5% water, 50 volumes): x | Solubility (volumes) (✓ YES; x NO) at 50° C. ([2]; Isopropyl acetate (IPAc), 10 volumes): x | Solubility (volumes) (✓ YES; x NO) at 50° C. ([2]; Isopropyl acetate (IPAc), 25 volumes): x | Solubility (volumes) (✓ YES; x NO) at 50° C. ([2]; Isopropyl acetate (IPAc), 50 volumes): x | Solubility (volumes) (✓ YES; x NO) at 50° C. ([2]; Methanol, 10 volumes): x | Solubility (volumes) (✓ YES; x NO) at 50° C. ([2]; Methanol, 25 volumes): x | Solubility (volumes) (✓ YES; x NO) at 50° C. ([2]; Methanol, 50 volumes): x | Solubility (volumes) (✓ YES; x NO) at 50° C. ([2]; Methyl ethyl ketone (MEK), 10 volumes): x | Solubility (volumes) (✓ YES; x NO) at 50° C. ([2]; Methyl ethyl ketone (MEK), 25 volumes): x | Solubility (volumes) (✓ YES; x NO) at 50° C. ([2]; Methyl ethyl ketone (MEK), 50 volumes): x | Solubility (volumes) (✓ YES; x NO) at 50° C. ([2]; Methyl isobutyl ketone (MIBK), 10 volumes): x | Solubility (volumes) (✓ YES; x NO) at 50° C. ([2]; Methyl isobutyl ketone (MIBK), 25 volumes): x | Solubility (volumes) (✓ YES; x NO) at 50° C. ([2]; Methyl isobutyl ketone (MIBK), 50 volumes): x | Solubility (volumes) (✓ YES; x NO) at 50° C. ([2]; Nitromethane, 10 volumes): x | Solubility (volumes) (✓ YES; x NO) at 50° C. ([2]; Nitromethane, 25 volumes): x | Solubility (volumes) (✓ YES; x NO) at 50° C. ([2]; Nitromethane, 50 volumes): x | Solubility (volumes) (✓ YES; x NO) at 50° C. ([2]; THF/5% water, 10 volumes): x | Solubility (volumes) (✓ YES; x NO) at 50° C. ([2]; THF/5% water, 25 volumes): Cloudy | Solubility (volumes) (✓ YES; x NO) at 50° C. ([2]; THF/5% water, 50 volumes): ✓ | Solubility (volumes) (✓ YES; x NO) at 50° C. ([2]; Tert-butyl methyl ether (TBME), 10 volumes): x | Solubility (volumes) (✓ YES; x NO) at 50° C. ([2]; Tert-butyl methyl ether (TBME), 25 volumes): x | Solubility (volumes) (✓ YES; x NO) at 50° C. ([2]; Tert-butyl methyl ether (TBME), 50 volumes): x | Solubility (volumes) (✓ YES; x NO) at 50° C. ([2]; Tetrahydrofuran (THF), 10 volumes): x | Solubility (volumes) (✓ YES; x NO) at 50° C. ([2]; Tetrahydrofuran (THF), 25 volumes): x | Solubility (volumes) (✓ YES; x NO) at 50° C. ([2]; Tetrahydrofuran (THF), 50 volumes): x | Solubility (volumes) (✓ YES; x NO) at 50° C. ([2]; Toluene, 10 volumes): x | Solubility (volumes) (✓ YES; x NO) at 50° C. ([2]; Toluene, 25 volumes): x | Solubility (volumes) (✓ YES; x NO) at 50° C. ([2]; Toluene, 50 volumes): x | Solubility (volumes) (✓ YES; x NO) at 50° C. ([2]; Water, 10 volumes): x | Solubility (volumes) (✓ YES; x NO) at 50° C. ([2]; Water, 25 volumes): x | Solubility (volumes) (✓ YES; x NO) at 50° C. ([2]; Water, 50 volumes): x | moisture uptake as determined by GVS [3]: less than 0.07% | relative stability versus Form IV (competitive slurry) [4]: more stable | changes in XRPD pattern after storage ([5]; 7 days at 25° C./97% RH): No visible changes | changes in XRPD pattern after storage ([5]; 7 days at 40° C./75% RH): No visible changes
